Laboratory results: patent US10570104B2, “Metabolically programmed metal chelators and uses thereof” (University of Florida Research Foundation, Incorporated, priority 2015, dated 2020)
“Also recorded” adds a separate entry of the source. Where two headings read alike, the source gives them in different places.

Key:
[1] = for Rat ICE (%): 300 μmol/kg, monosodium salt
Description: Sample collection and handling are as previously described.^38,40
Drug Preparation and Administration. In the iron clearing experiments, the rats were given 8-14 orally at a dose of 300 μmol/kg. […] The chelators were administered as their monosodium salts (prepared by the addition of 1 equiv of NaOH to a suspension of the free acid in distilled water).
Calculation of Chelator Iron Clearing Efficiency (ICE). The term “ICE” is used as a measure of the amount of iron excretion induced by a chelator. The ICE, expressed as a percent, is calculated as (ligand-induced iron excretion/theoretical iron excretion)×100. […] The theoretical iron outputs of the chelators were generated on the basis of a 2:1 ligand:iron complex. The efficiencies in the rats and monkeys were calculated as set forth elsewhere.^37 Data are presented as the mean±the standard error of the mean; p-values were generated via a one-tailed Student's t-test in which the inequality of variances was assumed, and a p-value of <0.05 was considered significant.

[2] = Tissue distribution/metabolism of chelators in rats given sc (HPLC); format: in vivo, Sprague-Dawley rats; conditions: sc 7, HPLC of tissues
[3] = Chelator-induced iron clearance (ICE) in iron-overloaded Cebus apella primates; format: in vivo, Cebus apella monkeys; conditions: 75 μmol/kg, monosodium salt
Description: Iron Loading of Cebus apella Monkeys. The monkeys (3.5-6.5 kg) were iron overloaded with intravenous iron dextran as specified in earlier publications to provide about 500 mg of iron per kg of body weight; the serum transferrin iron saturation rose to between 70 and 80%.^38,40 At least 20 half-lives, 60 days, elapsed before any of the animals were used in experiments evaluating iron-chelating agents.
Primate Fecal and Urine Samples. Fecal and urine samples were collected at 24 hours intervals and processed as described previously^38,40,74 Briefly, the collections began 4 days prior to the administration of the test drug and continued for an additional 5 days after the drug was given. Iron concentrations were determined by flame absorption spectroscopy as presented in other publications.^38′^40
Drug Preparation and Administration.
Calculation of Chelator Iron Clearing Efficiency (ICE).

[4] = Tissue distribution/metabolism of chelators in rats given sc (HPLC); format: in vivo, Sprague-Dawley rats
Description: Collection of Chelator Tissue Distribution Samples from Rodents. Male Sprague-Dawley rats (250-350 g) were given a single subcutaneously injection of the monosodium salts of 8 and 11 prepared as described above at a dose of […]. At times 0.5, 1, 2, 4 and 8 hours after dosing (n=3 rats per time point), the animals were euthanized by exposure to CO2 gas. Blood was obtained via cardiac puncture into vacutainers containing sodium citrate. The blood was centrifuged, and the plasma was separated for analysis. The liver, kidney, heart, and pancreas were removed from the animals and frozen.
Tissue Analytical Methods. Tissue samples of animals treated with 8 were prepared for HPLC analysis by homogenizing them in H2O at a ratio of 1:1 (w/v). Then, as a rinse, CH3OH at a ratio of 1:3 (w/v) was added, and the mixture was stored at −20° C. for 30 min. This homogenate was centrifuged. The supernatant was diluted with H2O, vortexed, and filtered with a 0.2 μm membrane. Analytical separation was performed on a Supelco Discovery RP Amide C16 HPLC system with UV detection at 310 nm as described previously.^44,75 Mobile phase and chromatographic conditions were as follows: solvent A, 5% CH3CN/95% buffer (25 mM KH2PO4+2.5 mM 1-octanesulfonic acid, pH 3.0); solvent B, 60% CH3CN/40% buffer.
Tissue samples of animals treated with 11 were prepared for HPLC analysis by homogenizing them in 0.5 N HClO4 at a ratio of 1:3 (w/v). Then, as a rinse, CH3OH at a ratio of 1:3 (w/v) was added, and the mixture was stored at −20° C. for 30 min. This homogenate was centrifuged. The supernatant was diluted with 95% buffer (25 mM KH2PO4, pH 3.0)/5% CH3CN, vortexed, and filtered with a 0.2 μm membrane. Analytical separation was performed on a Supelco Ascentis Express RP-Amide HPLC system with UV detection at 310 nm as described previously. Mobile phase and chromatographic conditions were as for 8.
Ligand concentrations were calculated from the peak area fitted to calibration curves by nonweighted least-squares linear regression with Shimadzu Class-VP 7.4 software.

[5] = log Papp, octanol/TRIS buffer pH 7.4, shake flask direct method; format: physicochemical; conditions: not told
Description: The redesign of 2 was predicated on the observation that both ligands 2 and 3 were orally active iron chelators in rodents and primates (Table 1), and that when the 4′-(OH) of 2 was methylated, providing (S)-4,5-dihydro-2-(2-hydroxy-4-methoxyphenyl)-4-methyl-4-thiazolecarboxylic acid^43 [(S)-4′-(CH3O)-DADFT, 4], there was a remarkable enhancement in both ICE and lipophilicity (log Papp). The log Papp data are expressed as the log of the fraction of the chelator seen in the octanol layer; measurements were done in TRIS buffer, pH 7.4, using a “shake flask” direct method.^49 The more negative the log Papp, the less chelator is in the octanol phase, the less lipophilic. Unfortunately, the increase in ICE of 4 came with a concomitant increase in toxicity.^50 Thus, the delicate balance between the increase in ICE and toxicity with enhanced lipophilicity needed to be understood and exploited.

[6] = po, cited from earlier work; for Rodent ICE (%): historical
[7] = po, 150 μmol/kg; historical; cited from earlier work
[8] = rats, sc, 300 mol/kg (so in the source); liver; 2 hours post drug; cited from earlier work
[9] = even when administered b.i.d.; cited from earlier work
[10] = 10-day toxicity trial of (S)-4′-(HO)-DADFT-HXA (11) in rats
Description: Note that this dose is equivalent to 100 mg/kg/day of DFT (1) as its sodium salt. The rats were housed in individual metabolic cages and were weighed each day. […] The rats were fasted overnight and were given the chelator first thing in the morning. […] The animals were euthanized one day post drug (day 11). […] Additional age-matched rats served as untreated controls for the CBC and serum chemistries and histopathology. No urine was collected from these animals. The studies were performed on rats with normal iron stores.
Aten-day toxicity trial of 11 was carried out in male Sprague-Dawley rats. The animals were housed in individual metabolic cages. […] Note that this dose is equivalent to 100 mg/kg/day of DFT (1) as its sodium salt. Urine was collected from the metabolic cages at 24-hour intervals and assessed for its Kim-1 content. The studies were performed on rats with normal iron stores; each animal served as its own control. Additional age-matched rats served as untreated controls for the CBC and serum chemistry assessments and histopathology.

[11] = treated rats, one day post drug, 384 μmol/kg/day po x 10 days

In the case of `C[C@]1(C(=O)O)CSC(c2ccc(OCCOCC(=O)O)cc2O)=N1` [Compound 9, (S)-4,5-dihydro-2-[2-hydroxy-4-(4-carboxy-3-oxabutyloxy)phenyl]-4-methyl-4-thiazolecarboxylic acid], the “Rat ICE (%)” value ([1]; po) is reported as 6.2 ± 1.7%, the “Rat ICE (%)” value ([1]; sc) is reported as 11.3 ± 3.4% and the “metabolism of 7 to 8 and 9 in tissues” value [2] is reported as “not detected”. For the same molecule, the “Cebus ICE (%)” value ([3]; po) was 1.7±1.4%, the “Cebus ICE (%)” value ([3]; sc) was 17.4±9.7% and the “share of drug (parent+metabolite)” value ([4]; sc 8, 300 μmol/kg, liver, 1 hour) was 59%. For the same molecule, the “detection in liver” value ([4]; sc 8, 300 μmol/kg, liver, 8 hours) was “no metabolite 9 remains”, the “share of drug (parent+metabolite)” value ([4]; sc 8, 300 μmol/kg, plasma, 2 hour post dosing) was 88% and the “detection in plasma” value ([4]; sc 8, 300 μmol/kg, plasma, 8 hour) was “Neither the parent 8 nor the metabolite 9 was found at the 8 hour time point”. For the same molecule, the “Log Papp” value [5] was −1.63.
In the case of `COc1ccc(C2=N[C@@](C)(C(=O)O)CS2)c(O)c1` [Compound 4, (S)-4,5-dihydro-2-(2-hydroxy-4-methoxyphenyl)-4-methyl-4-thiazolecarboxylic acid], the “Rodent ICE (%)” value ([6]; 300 μmol/kg) is given as 6.6 ± 2.8%, the “Log Papp” value [5] is given as −0.70 and the “Primate ICE (%)” value [7] is given as 24.4 ± 10.8%. For the same molecule, the “proportion of administered compound cleaved to its hydroxy metabolite (2 or 3)” value (“proportion” below) [8] was “about 30%”.
In the case of `COCCOCCOCCOc1cccc(C2=N[C@@](C)(C(=O)O)CS2)c1O` [Compound 6, (S)-4,5-dihydro-2-[2-hydroxy-3-(3,6,9-trioxadecyloxy)phenyl]-4-methyl-4-thiazolecarboxylic acid], the ICE ([6]; 150 μmol/kg, compound 6 dose response) is listed as 18.7±2.9%, the iron decorporated ([6]; 150 μmol/kg) is listed as 0.782 ± 0.121 mg/kg and the “Rodent ICE (%)” value ([6]; 300 μmol/kg, 48 hour sample collection period) is listed as 10.6±4.4%. The “quantity of iron excreted” value ([6]; 300 μmol/kg) was 0.887 ± 0.367 mg/kg, the “renal toxicity” value [9] was “no renal toxicity” and the “Log Papp” value [5] was −1.22. For the same molecule, the “Primate ICE (%)” value [7] was 23.0 ± 4.1% and the “proportion” value [8] was 2.6%.
For `COCCOCCOCCOc1ccc(C2=N[C@@](C)(C(=O)O)CS2)c(O)c1` [Compound 5, (S)-4,5-dihydro-2-[2-hydroxy-4-(3,6,9-trioxadecyloxy)phenyl]-4-methyl-4-thiazolecarboxylic acid], the “Rodent ICE (%)” value ([6]; 300 μmol/kg) is listed as 5.5 ± 1.9%, the “renal toxicity” value [9] is listed as “no renal toxicity” and the “Log Papp” value [5] is listed as −1.10. For the same molecule, the “Primate ICE (%)” value [7] was 25.4 ± 7.4% and the “proportion” value [8] was 2%.
For `C[C@]1(C(=O)O)CSC(c2ccc(OCCCCCCO)cc2O)=N1` [Compound 11, (S)-4,5-dihydro-2-[2-hydroxy-4-(6-hydroxyhexyloxy)phenyl]-4-methyl-4-thiazolecarboxylic acid], the “Rat ICE (%)” value ([1]; po) was 9.9 ± 0.8%, the “oral absorption” value ([1]; rats, po) was “well absorbed” and the “overt toxicity” value ([1]; rats, po 300 μmol/kg, single dose) was “did not present with any overt toxicity; also recorded: did not display any overt toxicity; also recorded: did not elicit any signs of overt toxicity”. For the same molecule, the “Cebus ICE (%)” value ([3]; po) was 21.9±3.6%, the “conversion of 11 to 12-14” value ([4]; sc 11, 300 μmol/kg) was “Significant conversion of 11→12-14 was found in all of the tissues examined; also recorded: quickly converted to the corresponding hydrophilic metabolites; also recorded: quickly converted to the corresponding hydrophilic acids 12, 13, and 14; also recorded: very quickly converted to the corresponding acid (12)” and the tissue concentration ([4]; sc 11, heart, 0.5 hour) was 26 nmol/g wet weight. The “detection in kidney” value ([4]; sc 11, kidney) was “trace amounts 0.5 hour post drug”, the “detection in liver” value ([4]; sc 11, liver) was “not found in the liver at any of the time points” and the tissue concentration ([4]; sc 11, pancreas, 0.5 hour) was under 5 nmol/g wet weight. The “detection in plasma” value ([4]; sc 11, plasma) was “no longer detectable”, the “share of total (parent+metabolites)” value ([4]; sc 11, plasma, 0.5 hour) was 22% and the “Log Papp” value [5] was 0.21. For the same molecule, the “urinary Kim-1 excretion” value ([10]; baseline and not exceeded during the 10-day exposure, 384 μmol/kg/day po) was under 20 ng/kg/24 hours, the “histopathology” value ([10]; extensive tissues (25/rat), 384 μmol/kg/day po x 10 days) was “did not identify any drug-related abnormalities” and the “survival / overall toxicity” value ([10]; rats, po once daily for 10 days, 384 μmol/kg/day) was “All of the rats treated with 11 survived the exposure to the drug; also recorded: lack of toxicity”. The BUN [10, 11] was 20 ± 4 mg/dL and the SCr [10, 11] was 0.5 ± 0.1 mg/dL.
